# Where two headings read alike, the source gives them in different places.
# How the values were obtained:
# [1] = test system: Loblolly pine megagametophytes
# Method: As in Example 9, the explants in this experiment were megagametophytes, containing Stage 2-4 somatic embryos, excised from the open pollinated summer cones of four different genotypes of Loblolly pine. Megagametophytes were isolated as in Example 4 and put on initiation media #889 (Table 47). The experiment consisted of three replications per treatment, per cone collection. Replications consisted of ten explants in adjacent wells on a single well plate. Plates were wrapped in […] and incubated in the dark at 23-24° C.
# Explants were cultured on solid media under atmospheres containing three levels of oxygen: normal air (21% oxygen), 30% oxygen and 50% oxygen. All oxygen treatments were applied at either normal atmospheric pressure or under an elevated pressure of 1.5 atmospheres.
# After eight weeks, extrusion and initiation were scored, as described in Example 3.
# [2] = test system: loblolly pine; conditions: silver nitrate at about 29-59 μM; cited from earlier work
# [3] = genotype 5-1036, 30% Oxygen + Pressure
# [4] = genotype 5-1036, 50% Oxygen + Pressure
# [5] = genotype 11-1057, 30% Oxygen + Pressure
# [6] = genotype 11-1057, 50% Oxygen + Pressure
# [7] = genotype 18-120, 30% Oxygen + Pressure
# [8] = genotype 18-120, 50% Oxygen + Pressure
# [9] = genotype 18-1212, 30% Oxygen + Pressure
# [10] = genotype 18-1212, 50% Oxygen + Pressure
smiles,measurement,setting,value
O=O [Oxygen],% Megagametophytes Extruding,"[1]; Total, 30% Oxygen",45.3%
same,% Megagametophytes Initiating,"[1]; Total, 30% Oxygen",5.9%
same,% Megagametophytes Extruding,"[1]; Total, 30% Oxygen + Pressure",53.2%
same,% Megagametophytes Initiating,"[1]; Total, 30% Oxygen + Pressure",7.6%
same,% Megagametophytes Extruding,"[1]; Total, 50% Oxygen",49.8%
same,% Megagametophytes Initiating,"[1]; Total, 50% Oxygen",11.1%
same,% Megagametophytes Extruding,"[1]; Total, 50% Oxygen + Pressure",56.9%
same,% Megagametophytes Initiating,"[1]; Total, 50% Oxygen + Pressure",8.6%
same,% Megagametophytes Extruding,"[1]; genotype 5-1036, 30% Oxygen",57.5 (3.8) %
same,% Megagametophytes Initiating,"[1]; genotype 5-1036, 30% Oxygen",3.3 (3.3) %
same,% Megagametophytes Extruding,[1]; [3],73.3 (8.8) %
same,% Megagametophytes Initiating,[1]; [3],13.3 (3.3) %
same,% Megagametophytes Extruding,"[1]; genotype 5-1036, 50% Oxygen",50.0 (10.0) %
same,% Megagametophytes Initiating,"[1]; genotype 5-1036, 50% Oxygen",20.0 (5.8) %
same,% Megagametophytes Extruding,[1]; [4],83.3 (3.3) %
same,% Megagametophytes Initiating,[1]; [4],13.3 (3.3) %
same,% Megagametophytes Extruding,"[1]; genotype 11-1057, 30% Oxygen",30.0 (15.3) %
same,% Megagametophytes Initiating,"[1]; genotype 11-1057, 30% Oxygen",10.0 (0.0) %
same,% Megagametophytes Extruding,[1]; [5],34.4 (16.1) %
same,% Megagametophytes Initiating,[1]; [5],6.7 (67) %
same,% Megagametophytes Extruding,"[1]; genotype 11-1057, 50% Oxygen",53.3 (3.3) %
same,% Megagametophytes Initiating,"[1]; genotype 11-1057, 50% Oxygen",13.0 (3.3) %
same,% Megagametophytes Extruding,[1]; [6],43.3 (3.3) %
same,% Megagametophytes Initiating,[1]; [6],10.0 (5.8) %
same,% Megagametophytes Extruding,"[1]; genotype 18-120, 30% Oxygen",33.3 (19.2) %
same,% Megagametophytes Initiating,"[1]; genotype 18-120, 30% Oxygen",0.0 (0.0) %
same,% Megagametophytes Extruding,[1]; [7],16.7 (8.8) %
same,% Megagametophytes Initiating,[1]; [7],6.7 (6.7) %
same,% Megagametophytes Extruding,"[1]; genotype 18-120, 50% Oxygen",40.0 (10.0) %
same,% Megagametophytes Initiating,"[1]; genotype 18-120, 50% Oxygen",0.0 (0.0) %
same,% Megagametophytes Extruding,[1]; [8],30.8 (3.6) %
same,% Megagametophytes Initiating,[1]; [8],4.2 (4.2) %
same,% Megagametophytes Extruding,"[1]; genotype 18-1212, 30% Oxygen",60.3 (8.0) %
same,% Megagametophytes Initiating,"[1]; genotype 18-1212, 30% Oxygen",10.4 (5.8) %
same,% Megagametophytes Extruding,[1]; [9],88.4 (6.5) %
same,% Megagametophytes Initiating,[1]; [9],3.7 (3.7) %
same,% Megagametophytes Extruding,"[1]; genotype 18-1212, 50% Oxygen",56.0 (3.6) %
same,% Megagametophytes Initiating,"[1]; genotype 18-1212, 50% Oxygen",11.2 (0.7) %
same,% Megagametophytes Extruding,[1]; [10],70.0 (15.3) %
same,% Megagametophytes Initiating,[1]; [10],10.0 (5.8) %
O=[N+]([O-])[O-].[Ag+] [silver nitrate],embryogenic culture initiation,[2],improved embryogenic culture initiation

# Reference: US6492174B1, “Methods of initiating embryogenic cultures in plants” (Institute of Paper Science & Technology, priority 2000, dated 2002)
